Test results: US20180298053A1, “ANTIBIOTIC OLIGOPEPTIDES” (priority 2017, published 2018)
Structures can show the parent of a compound that is named as a salt. Square brackets hold non-standard residues; d marks the D form. Peptide text beside a SMILES is read from it. * marks the point of attachment. ξ: configuration not given here. ξF = NC(Cc1ccccc1)C(=O)O; NHOH = ON*

Test system: E. coli (ATTC 8739)
Test: Zone of inhibition test
Type: cell-based
Conditions: at 12.5 μg, FIG. 1B
Method: Compound A was tested against L-phenylalanine-(S)-2-amino-N-hydroxy-4-(methylthio)butanamide hydrochloride (Example 3) in a side-by-side comparison in a conventional zone of inhibition test. In this test, both compounds were compared at various concentrations against E. coli (ATTC 8739) grown in a Petri dish using the antibiotic kanamycin as a control.

Compound: CSCC[C@H](NC(=O)C(N)Cc1ccccc1)C(=O)NO (stereo partly drawn) [Example 3, L-phenylalanine-(S)-2-amino-N-hydroxy-4-(methylthio)butanamide Hydrochloride] (H-[ξF]-Met-{NHOH})
- strength of zone of inhibition compared with cpd. A at 50 μg: substantially stronger
